Where two headings read alike, the source gives them in different places.
Columns and labels:
[1] = system: NF54 strain of P. falciparum; test: Ring-stage-specific drug activity (pLDH); assay type: cell-based; settings: Plasmodium falciparum, median ± SEM
Protocol: Each compound was dissolved in dimethyl sulfoxide (DMSO) and diluted in RPMI-1640 medium into seven different concentrations, which were tested against CQ-susceptible strains (NF54 or D10) or a CQ-resistant strain (W2). Each well of 96-well plates was filled with 100 µL drug and 100 µL parasitized RBC (asynchronous parasite culture), which were mixed to obtain a final parasitemia of 1.0% to 1.5% and 1.0% hematocrit. Plates were incubated for 72 h at 37°C in a standard gas mixture; then, parasite growth was determined by measuring the activity of the parasite lactate dehydrogenase (pLDH) ([38]). Briefly, at the end of incubation, the cultures were carefully resuspended, and 20 µL aliquots were removed and added to 100 µL Malstat reagent in a 96-well microplate. The Malstat reagent is made of 0.125% TritonX-100, 130 mM L-lactate, 30 mM Tris buffer, and 0.62 µM 3-acetylpyridine adenine dinucleotide. After that, 20 µL 1.9 µM nitro blue tetrazolium (NBT) and 0.24 µM phenazine ethyl sulfate were added to the plate. NBT was reduced to blueformazan and spectrophotometrically read at OD 650 nm using a Synergy 4 microplate reader (BioTek, Santa Clara, USA). […] IC50 values were expressed as means of two to three independent experiments, with each drug concentration in duplicate.
The NF54 strain of P. falciparum was employed to test the drugs’ activity against ring stages and asynchronous parasite culture (all stages). The ring stages were obtained by synchronization with D-Sorbitol using a standard method ([39]). Each well of 96-well plates was filled with 100 µL each drug and 100 µL culture containing ring-stage or asynchronous parasites, which were mixed to obtain a final parasitemia of 1.0% to 1.5% and 1.0% hematocrit. […] Plates were processed using the pLDH method, and IC50 values were calculated as described above. At least two to three independent experiments were performed, using two technical replicates.
^[a] Synchronized ring-stage parasites were incubated in the presence of compounds for 6 h, drugs were removed by washing, and plates were incubated for an additional 66 h. ^[b] Asynchronous parasites were incubated in the presence of compounds for 6 h, drugs were removed by washing, and plates were incubated for an additional 66 h. ^[c] Asynchronous parasites were incubated in the presence of compounds for 72 h. ^[a,b^] Experiments were performed in parallel. ^[d] […] Parasite viability was determined by parasite lactate dehydrogenase. Data are from three experiments performed in duplicate. MFQ = mefloquine; DHA = dihydroartemisinin; SEM = standard error of the mean.

[2] = system: F32-ART (ART-resistant) strain of P. falciparum; test: Standard chemosensitivity assay (SYBR Green I, 48 h); assay type: cell-based; settings: Plasmodium falciparum, F32, 48 h
Protocol: (§1) Compounds were dissolved in DMSO and diluted in RPMI-1640 medium into five different concentrations (0.1–1000 nM). Each well of 96-well plates was filled with 100 µL drug at each concentration and 100 µL synchronized ring-stages of the ART-resistant strain F32-ART or its ART-susceptible twin strain F32-TEM at final parasitemia of 1% and 2% hematocrit. Plates were incubated for 48 h at 37°C and 5% CO2. The drugs were washed out in 1× phosphate-buffered saline (PBS) (Sigma-Aldrich), the plates were frozen and thawed, and then, the lysed parasites were transferred to black 96-well plates. SYBR Green I (Fisher Scientific, Illkirch, France) at a 2× concentration in a lysis buffer (20 mM TRIS base, pH 7.5, 20 mM EDTA, 0.008% wt/vol saponin, 0.08% wt/vol Triton X-100) was then added and the plates were incubated for 1 h at room temperature in the dark. Fluorescence was measured at 485 nm excitation and 528 nm emission in a VICTOR Nivo plate reader (Perkin Elmer, Waltham, USA) and the IC50s values were then calculated using Prism 7 (GraphPad, San Diego, USA).
(§2) ^[a] Parasites were exposed for 48 h of incubation in the presence of drugs, then parasite viability was determined using SYBR Green I. Mean of two independent experiments. DHA = dihydroartemisinin; SD = standard deviation.

[3] = system: F32-TEM (ART-sensitive) strain of P. falciparum; test: as above; assay type: cell-based; settings: Plasmodium falciparum, F32, 48 h, read-out: IC50 (nM, mean ± SD) for P. falciparum (48 h), F32-TEM (ART-sensitive)
Protocol: as §1, §2

F32-TEM parasites = test: In vitro recrudescence assay; assay type: cell-based, Plasmodium falciparum; settings: 700 nM, 48 h exposure, monitored up to 30 days
Protocol: (§3) Parasites were washed with RPMI-1640 medium before being placed in drug-free culture conditions with 10% human serum. Parasitemia was determined daily by Giemsa-staining of blood smears until the cultures reached their initial parasitemia, defined as the recrudescence day. […] Two independent experiments were performed ([10]).

F32-ART parasites = test: In vitro recrudescence assay; assay type: cell-based, Plasmodium falciparum; settings: 700 nM, 48 h exposure; for Recrudescence time in days (median; range), Recrudescence assay F32-ART: monitored up to 30 days
Protocol: as §3

[4] = asynchronous parasites, 6 h drug, wash, additional 66 h, read-out: IC50, Asynchronous
[5] = asynchronous parasites, 72 h continuous drug, read-out: IC50, 72 h
[6] = synchronized ring stages, 6 h drug, wash, additional 66 h, read-out: IC50, Ring stages
[7] = read-out: IC50 (nM, mean ± SD) for P. falciparum (48 h), F32-ART (ART-resistant)

| SMILES | IC50 [1, 4] | IC50 [1, 5] | IC50 [1, 6] | IC50 [2, 7] | IC50 ([2]; read-out: IC50 in the standard chemosensitivity assay) | IC50 [3] | Recrudescence time in days (median; range), Recrudescence assay F32-TEM (F32-TEM parasites) | delay in recrudescence between F32-ART and F32-TEM (F32-ART parasites) | Recrudescence time in days (median; range), Recrudescence assay F32-ART (F32-ART parasites) |
| --- | --- | --- | --- | --- | --- | --- | --- | --- | --- |
| C[C@H]1[C@@H](O)O[C@@H]2O[C@@]3(C)CC[C@H]4[C@H](C)CC[C@@H]1[C@@]24OO3 [DHA, dihydroartemisinin, reference compound] | 4.6 ± 0.9 nM | 2.1 ± 0.6 nM | 5 ± 0.5 nM | 0.8 ± 0.8 nM | < 5 nM | 2 ± 0.2 nM | 16.5 (15–18) days | 8 days | 7.5 (7–8) days |
| COCCOCCOCCOCCn1c(-c2ccc(-n3cc(-c4ccc(OC5OC6OC7(C)CCC8C(C)CCC(C5C)C68OO7)cc4)nn3)cc2)nc2ccccc21 (centres unmarked) [Hybrid 1] | 3.5 ± 0.3 nM | 3 ± 0.3 nM | 1.5 ± 0.3 nM | 4.2 ± 1.3 nM |  | 2.6 ± 0.6 nM | > 20 (21–>30) days |  | 11.5 (10– 13) days |
| CC1CCC2C(C)C(OC(=O)CCC(=O)OCCNc3ccnc4cc(Cl)ccc34)OC3OC4(C)CCC1C32OO4 (centres unmarked) [Hybrid 2] | 19.1 ± 1.8 nM | 8.1 ± 1 nM | 9 ± 1.5 nM | 4.5 ± 2.5 nM |  | 4.8 ± 1.2 nM | 16 (14–18) days |  | 7.5 (7–8) days |
